Common to all, as to experiment: ≥ marks a high value that may be exact or a test limit, other limits are often not marked, values filed in µg/mL are converted to µM
For assay [1], the system named is Pseudomonas aeruginosa PAO1.
Assay [2] deals with Pseudomonas aeruginosa ATCC 27853.
Assay [3] concerns Corynebacterium jeikeium ATCC BAA-949.
Assay [4] deals with Pseudomonas aeruginosa ATCC 15692.
Assay [5] deals with Pseudomonas aeruginosa 1.
In assay [6] the test system is Pseudomonas aeruginosa 2.
Assay [7] has as its system Candida albicans.
The subject of assay [8] is Pseudomonas aeruginosa.
Assay [9] relates to Pseudomonas aeruginosa H1001.
The subject of assay [10] is Salmonella enterica subsp. enterica serovar Pullorum C79-13.
Assay [11] concerns Lacticaseibacillus rhamnosus 1.0911.
Assay [12] concerns Lacticaseibacillus rhamnosus 1.0936.
In assay [13] the test system is Escherichia coli K88.
The test system of assay [14] is Salmonella enterica subsp. enterica serovar Choleraesuis CVCC 503.
Assay [15] concerns Escherichia coli O157:H7 CICC 21530.
Assay [16] relates to Lacticaseibacillus rhamnosus 8014.
In assay [17] the test system is Staphylococcus epidermidis ATCC 12228.
In assay [18] the test system is Staphylococcus aureus ATCC 43300.
The subject of assay [19] is Streptococcus agalactiae BNCC 185941.
In assay [20] the test system is Staphylococcus aureus ATCC 29213.
Assay [21] deals with Lacticaseibacillus rhamnosus 1.9021.
In assay [22] the test system is Salmonella enterica subsp. enterica serovar Typhimurium ATCC 14028.

≈ marks a conversion by molar mass, not a printed value.

Consider `CC[C@H](C)[C@H](NC(=O)CN)C(=O)N[C@@H](Cc1ccccc1)C(=O)N[C@@H](CO)C(=O)N[C@@H](CCCCN)C(=O)N[C@@H](CC(C)C)C(=O)N[C@@H](C)C(=O)NCC(=O)N[C@@H](CCCCN)C(=O)N[C@@H](CCCCN)C(=O)N[C@@H](CC(C)C)C(=O)N[C@@H](CCCCN)C(=O)N[C@@H](CC(N)=O)C(=O)N[C@@H](CC(C)C)C(=O)N[C@@H](CC(C)C)C(=O)N[C@H](C(=O)N[C@@H](CO)C(=O)NCC(N)=O)[C@@H](C)CC` [GIFSKLAGKKLKNLLISG], for which the minimum inhibitory concentration (MIC) in [1] turned out to be 8 µM (≈ 15.1 µg/mL); in assay [2], 8 µM (≈ 15.1 µg/mL); in assay [3], 4 µM (≈ 7.55 µg/mL); in assay [4] it was 8 µM (≈ 15.1 µg/mL); in assay [5] it was 8 µM (≈ 15.1 µg/mL); in [6], 16 µM (≈ 30.2 µg/mL). For the same compound, the minimum inhibitory concentration (MIC) came to 2.83 µM (≈ 5.34 µg/mL) in [7] and 8 µM (≈ 15.1 µg/mL) in [8].

Regarding `CC[C@H](C)[C@H](NC(=O)[C@H](CCCN=C(N)N)NC(=O)[C@H](CCCN=C(N)N)NC(=O)[C@@H]1CCCN1C(=O)[C@@H]1CCCN1C(=O)[C@H](CCCN=C(N)N)NC(=O)[C@@H]1CCCN1C(=O)[C@H](CCCN=C(N)N)NC(=O)[C@@H]1CCCN1C(=O)[C@H](CC(C)C)NC(=O)[C@H](Cc1ccc(O)cc1)NC(=O)[C@@H]1CCCN1C(=O)[C@@H]1CCCN1C(=O)[C@H](CCCCN)NC(=O)[C@H](CC(=O)O)NC(=O)[C@@H](N)C(C)C)C(=O)N[C@@H](Cc1ccc(O)cc1)C(=O)N[C@@H](Cc1ccc(O)cc1)C(=O)N[C@@H](CCCN=C(N)N)C(=O)NCC(=O)O` [VDKPPYLPRPRPPRRIYYRG], the MIC in assay [9] amounted to 0.12 µM (≈ 0.3 µg/mL).

As for `CC[C@H](C)[C@H](NC(=O)[C@H](C)NC(=O)[C@H](CC(N)=O)NC(=O)[C@@H](N)CCSC)C(=O)N[C@@H](CCCCN)C(=O)N[C@@H](CC(C)C)C(=O)N[C@@H](CC(C)C)C(=O)N[C@@H](CS)C(=O)N[C@@H](CCCN=C(N)N)C(=O)N[C@H](C(=O)O)C(C)C` [MNAIKLLCRV], the MIC in assay [9] was 21.5 µM (≈ 25 µg/mL).

Regarding `CC(C)C[C@H](NC(=O)CNC(=O)[C@H](CCCCN)NC(=O)[C@H](CC(C)C)NC(=O)[C@H](CC(C)C)NC(=O)[C@H](CCCCN)NC(=O)[C@@H](N)CCCCN)C(=O)N[C@@H](CC(C)C)C(=O)N[C@@H](CCCCN)C(=O)NCC(=O)N[C@@H](Cc1c[nH]c2ccccc12)C(N)=O` [KKLLKGLLKGW], the MIC in [10] is no less than 32 µM; in assay [11], no less than 128 µM; in assay [12], no less than 128 µM; in assay [1] it was 64 µM (≈ 82.1 µg/mL); in [13], 16 µM (≈ 20.5 µg/mL); in [14] it was no less than 64 µM. Also, the MIC is no less than 64 µM in assay [15]; 32 µM (≈ 41 µg/mL) in [2]; no less than 128 µM in assay [16]; greater than 128 µM in [17]; greater than 128 µM in [18]; no less than 128 µM in assay [19]. Further, the MIC was greater than 128 µM in assay [20], no less than 128 µM in assay [21] and 32 µM (≈ 41 µg/mL) in [22].

Regarding `CC(C)C[C@H](NC(=O)CNC(=O)[C@H](CC(C)C)NC(=O)[C@H](Cc1c[nH]c2ccccc12)NC(=O)[C@H](CC(C)C)NC(=O)CNC(=O)[C@H](CC(C)C)NC(=O)[C@H](CCCCN)NC(=O)[C@H](CCCCN)NC(=O)CN)C(=O)N[C@@H](CCCCN)C(=O)N[C@@H](CCCCN)C(=O)NCC(N)=O` [GKKLGLWLGLKKG], the MIC in assay [10] is 16 µM (≈ 22.3 µg/mL); in [11] it was no less than 128 µM; in [12], no less than 128 µM; in assay [1], 32 µM (≈ 44.7 µg/mL); in assay [13] it was 4 µM (≈ 5.59 µg/mL); in assay [14] it was no less than 32 µM. Besides, the minimum inhibitory concentration (MIC) in [15] is 8 µM (≈ 11.2 µg/mL); in assay [2] it was 16 µM (≈ 22.3 µg/mL); in [16] it was no less than 128 µM; in [17] it was greater than 128 µM; in assay [18] it was greater than 128 µM; in assay [19] it was no less than 128 µM. Besides, the results for the MIC in [20], in assay [21] and in assay [22] were greater than 128 µM, no less than 128 µM and 32 µM (≈ 44.7 µg/mL), respectively.

(Values after DBAASP.)
